The target in experiment [1] is T1, human bradykinin 1 receptor (B1R) (Homo sapiens, UniProt P46663).
T1 construct: expressed in transfected cells; host or cells: CHO K1 cells
T1 sequence (P46663 1-353): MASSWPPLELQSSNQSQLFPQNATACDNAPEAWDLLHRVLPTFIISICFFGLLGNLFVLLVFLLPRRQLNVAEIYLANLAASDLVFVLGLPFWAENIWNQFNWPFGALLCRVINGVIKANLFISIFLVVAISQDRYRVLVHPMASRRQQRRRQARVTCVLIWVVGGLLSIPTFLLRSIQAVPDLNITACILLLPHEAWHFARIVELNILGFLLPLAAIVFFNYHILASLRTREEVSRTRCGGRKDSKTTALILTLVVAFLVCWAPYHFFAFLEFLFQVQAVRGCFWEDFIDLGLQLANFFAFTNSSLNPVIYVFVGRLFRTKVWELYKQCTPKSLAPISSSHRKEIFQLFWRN
The experiment is described as follows: Functional investigation on the human bradykinin 1 receptor (B1R), Ca2+ FLIPR assay in CHO K1 hB1R cells. The class given is cell-based. The conditions noted are these: CHO-K1, B1R antagonism human; test substance 10 μM; Ca2+ FLIPR, CHO K1 hB1R cells; read-out: B1R Ant. h [10 μM] % Inhibition. The text has this: (§1) Functional Investigation on the Human Bradykinin 1 Receptor (B1R)
(§2) The agonistic or antagonistic action of substances can be determined on the bradykinin 1 receptor (B1R) of the human species and rats with the following assay. In accordance with this assay, the Ca^2+ inflow through the channel is quantified with the aid of a Ca^2=-sensitive dyestuff (type Fluo-4, Molecular Probes Europe BV, Leiden, Holland) in a fluorescent imaging plate reader (FLIPR, Molecular Devices, Sunnyvale, USA).
(§3) Chinese hamster ovary cells (CHO K1 cells) transfected stably with the human B1R gene (hB1R cells) or the B1R gene of the rat (rB1R cells) are used. For functional studies, these cells are plated out on black 96-well plates with a clear base (BD Biosciences, Heidelberg, Germany or Greiner, Frickenhausen, Germany) in a density of 20,000-35,000 cells/well. The cells are left overnight at 37° C. and 5% CO2 in culture medium (hB1R cells: Nutrient Mixture Ham's F12, Gibco Invitrogen GmbH, Karlsruhe, Germany or DMEM, Sigma-Aldrich, Taufkirchen, Germany; rB1R cells: D-MEM/F12, Gibco Invitrogen GmbH, Karlsruhe, Germany) with 10 vol. % of FBS (foetal bovine serum, Gibco Invitrogen GmbH, Karlsruhe, Germany or PAN Biotech GmbH, Aidenbach, Germany).
(§4) On the following day, the cells are loaded for 60 min at 37° C. with 2.13 μM Fluo-4 (Molecular Probes Europe BV, Leiden, The Netherlands) in HBSS buffer (Hank's buffered saline solution, Gibco Invitrogen GmbH, Karlsruhe, Germany) with 2.5 mM probenecid (Sigma-Aldrich, Taufkirchen, Germany) and 10 mM HEPES (Sigma-Aldrich, Taufkirchen, Germany). The plates are then washed 2× with HBSS buffer, and HBSS buffer which additionally contains 0.1% of BSA (bovine serum albumin; Sigma-Aldrich, Taufkirchen, Germany), 5.6 mM glucose and 0.05% of gelatine (Merck KGaA, Darmstadt, Germany) is added. After a further incubation of 20 minutes at room temperature, the plates are inserted into the FLIPR for the Ca^2+ measurement.
(§5) Alternatively, the plates are washed with buffer A (15 mM HEPES, 80 mM NaCl, 5 mM KCl, 1.2 mM CaCl2, 0.7 mM MgSO4, 2 g/l glucose, 2.5 mM probenecid), buffer A is added and the plates are loaded with 2.5 μM Fluo-4 and 0.025% of Pluronic F127 (Sigma-Aldrich, Taufkirchen, Germany). Thereafter, the cells are washed 2× with buffer A and incubated for 30 minutes with buffer A, which additionally contains 0.05% of BSA and 0.05% of gelatine, at room temperature and thereafter inserted into the FLIPR for the Ca^2+ measurement.
(§6) The Ca^2+-dependent fluorescence is measured before and after addition of substances (λex=488 nm, λem=540 nm). Quantification is by measurement of the highest fluorescence intensity (FC, fluorescence counts) over time.
(§7) The FLIPR protocol consists of 2 additions of substance. Test substances (10 μM) are first pipetted on to the cells and the Ca^2+ inflow is compared with the control (hB1R: Lys-Des-Arg^9-bradykinin >=50 nM; rB1R: Des-Arg^9-bradykinin 10 μM). This gives the information in % activation based on the Ca^2+ signal after addition of Lys-Des-Arg^9-bradykinin (>=50 nM) or Des-Arg^9-bradykinin (10 μM).
(§8) After incubation for 10-20 minutes, Lys-Des-Arg^9-bradykinin (hB1R) or Des-Arg^9-bradykinin (rB1R) is applied in the concentration of the EC80 and the inflow of Ca^2+ is likewise determined.
(§9) Antagonists lead to a suppression of the Ca^2+ inflow. % inhibition compared with the maximum achievable inhibition is calculated.
(§10) To determine the IC50 value, the substances are added in various concentrations. Duplicate or triplicate determinations (n=2 or n=3) are carried out, and these are repeated in at least one further independent experiment (N>=2).
(§11) Preferably, the compounds have a B1R antagonistic action on the human receptor and/or on the rat receptor. The following data are given by way of example in the following table: (In this, “B1R Ant. h” represents “B1R antagonism human” and “B1R Ant. r” represents “B1R antagonism rat”)

Experiment [2] has as its target T2, bradykinin 1 receptor (B1R) of the rat (Rattus norvegicus, UniProt P97583).
T2 construct: expressed in transfected cells; host or cells: CHO K1 cells
T2 sequence (P97583 1-337): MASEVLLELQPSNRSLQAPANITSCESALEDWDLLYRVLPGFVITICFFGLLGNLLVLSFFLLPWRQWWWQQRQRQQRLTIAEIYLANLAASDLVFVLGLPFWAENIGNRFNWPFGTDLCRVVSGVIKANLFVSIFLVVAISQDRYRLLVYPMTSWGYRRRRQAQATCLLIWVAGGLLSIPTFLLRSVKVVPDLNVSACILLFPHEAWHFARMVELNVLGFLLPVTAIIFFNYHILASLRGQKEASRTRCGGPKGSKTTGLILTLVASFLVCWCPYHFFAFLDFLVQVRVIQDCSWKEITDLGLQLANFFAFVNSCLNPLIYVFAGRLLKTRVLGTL
The experiment is described as follows: Functional investigation on the rat bradykinin 1 receptor (B1R), Ca2+ FLIPR assay in CHO K1 rB1R cells. The class given is cell-based. To be noted: CHO-K1, B1R antagonism rat; test substance 10 μM; Ca2+ FLIPR, CHO K1 rB1R cells; read-out: B1R Ant. r [10 μM] % Inhibition.
Excerpt: as §1, §2, §3, §4, §5, §6, §7, §8, §9, §10, §11

Structures are written as SMILES.

Consider `CN(C)C(c1ccccc1)C1CCC(NC(=O)CNC(=O)c2nc(-c3c(Cl)cccc3Cl)no2)CC1` (stereo not shown) [Example 770, 3-(2,6-dichloro-phenyl)-[1,2,4]oxadiazole-5-carboxylic acid {[4-(dimethylamino-phenyl-methyl)-cyclohexylcarbamoyl]-methyl}-amide], for which the inhibition at 10 µM in experiment [1] turned out to be 53%; in experiment [2] it was 16%.
For `CN(C)C(c1ccccc1)C1CCC(NC(=O)CCNC(=O)c2nc(-c3ccccn3)no2)CC1` (stereo not shown) [Example 771, 3-pyridin-2-yl-[1,2,4]oxadiazole-5-carboxylic acid {2-[4-(dimethylamino-phenyl-methyl)-cyclohexylcarbamoyl]-ethyl}-amide] the same measures were -16% and 8%.
Turning to `Cc1cc(C)c(-c2noc(C(=O)NCC(=O)NC3CCC(C(c4ccccc4)N(C)C)CC3)n2)c(C)c1` (stereo not shown) [Example 772, 3-(2,4,6-trimethyl-phenyl)-[1,2,4]oxadiazole-5-carboxylic acid {[4-(dimethylamino-phenyl-methyl)-cyclohexylcarbamoyl]-methyl}-amide], the inhibition at 10 µM is 11% in experiment [1] and 41% in experiment [2].
On to `CN(C)C(c1ccccc1)C1CCC(NC(=O)CCNC(=O)c2nc(-c3ccc(Cl)cc3Cl)no2)CC1` (stereo not shown) [Example 773, 3-(2,4-dichloro-phenyl)-[1,2,4]oxadiazole-5-carboxylic acid {2-[4-(dimethylamino-phenyl-methyl)-cyclohexylcarbamoyl]-ethyl}-amide], for which the inhibition at 10 µM in experiment [1] came out at 20%; in experiment [2], 17%.
For the molecule `COc1ccc(-c2noc(C(=O)NCCC(=O)NC3CCC(C(c4ccccc4)N(C)C)CC3)n2)cc1OC` (stereo not shown) [Example 774, 3-(3,4-dimethoxy-phenyl)-[1,2,4]oxadiazole-5-carboxylic acid {2-[4-(dimethylamino-phenyl-methyl)-cyclohexylcarbamoyl]-ethyl}-amide], the inhibition at 10 µM was -8% in experiment [1] and 2% in experiment [2].
In the same order, the values of `COc1ccc(-c2noc(C(=O)NCC(=O)NC3CCC(C(c4ccccc4)N(C)C)CC3)n2)cc1OC` (stereo not shown) [Example 775, 3-(3,4-dimethoxy-phenyl)-[1,2,4]oxadiazole-5-carboxylic acid {[4-(dimethylamino-phenyl-methyl)-cyclohexylcarbamoyl]-methyl}-amide] are -7% and 20%.
In the same order, the values of `CN(C)C(c1ccccc1)C1CCC(NC(=O)CCNC(=O)c2nc(-c3cccs3)no2)CC1` (stereo not shown) [Example 776, 3-thiophen-2-yl-[1,2,4]oxadiazole-5-carboxylic acid {2-[4-(dimethylamino-phenyl-methyl)-cyclohexylcarbamoyl]-ethyl}-amide] are -22% and 30%.
As for `CN(C)C(c1cccs1)C1CCC(NC(=O)CNC(=O)c2nc(-c3ccc(C(F)(F)F)cc3)no2)CC1` (stereo not shown) [Example 777, 3-(4-trifluoromethyl-phenyl)-[1,2,4]oxadiazole-5-carboxylic acid {[4-(dimethylamino-thiophen-2-yl-methyl)-cyclohexylcarbamoyl]-methyl}-amide], the inhibition at 10 µM in experiment [1] is -1%; in experiment [2] it was 27%.
For `CN(C)C(c1cccc(F)c1)C1CCC(CNC(=O)CNC(=O)c2nc(-c3ccc(C(F)(F)F)cc3)no2)CC1` (stereo not shown) [Example 778, 3-(4-trifluoromethyl-phenyl)-[1,2,4]oxadiazole-5-carboxylic acid [({4-[dimethylamino-(3-fluoro-phenyl)-methyl]-cyclohexylmethyl}-carbamoyl)-methyl]-amide] the same measures were -1% and 12%.
In the same order, the values of `CN(C)C(c1cccs1)C1CCC(NC(=O)CNC(=O)c2nc(-c3ccc(C(C)(C)C)cc3)no2)CC1` (stereo not shown) [Example 779, 3-(4-tert-butyl-phenyl)-[1,2,4]oxadiazole-5-carboxylic acid {[4-(dimethylamino-thiophen-2-yl-methyl)-cyclohexylcarbamoyl]-methyl}-amide] are -10% and -13%.
In the same order, the values of `CN(C)C(c1cccc(F)c1)C1CCC(CNC(=O)CCNC(=O)c2nc(-c3cccs3)no2)CC1` (stereo not shown) [Example 780, 3-thiophen-2-yl-[1,2,4]oxadiazole-5-carboxylic acid [2-({4-[dimethylamino-(3-fluoro-phenyl)-methyl]-cyclohexylmethyl}-carbamoyl)-ethyl]-amide] are -12% and -2%.
`CN(C)C(c1cccc(F)c1)C1CCC(CNC(=O)CNC(=O)c2nc(CS(=O)(=O)c3ccccc3)no2)CC1` (stereo not shown) [Example 781, 3-benzenesulfonylmethyl-[1,2,4]oxadiazole-5-carboxylic acid [({4-[dimethylamino-(3-fluoro-phenyl)-methyl]-cyclohexylmethyl}-carbamoyl)-methyl]-amide]: the results for the inhibition at 10 µM in experiment [1] and in experiment [2] were -4% and -35%, respectively.
Take `COc1ccccc1-c1noc(C(=O)NCC(=O)NC2CCC(C(CCc3ccccc3)N(C)C)CC2)n1` (stereo not shown) [Example 782, 3-(2-methoxy-phenyl)-[1,2,4]oxadiazole-5-carboxylic acid {[4-(1-dimethylamino-3-phenyl-propyl)-cyclohexylcarbamoyl]-methyl}-amide]: the inhibition at 10 µM is -6% in experiment [1] and -11% in experiment [2].
For `CN(C)C(CCc1ccccc1)C1CCC(NC(=O)CNC(=O)c2nc(-c3ccc4c(c3)OCO4)no2)CC1` (stereo not shown) [Example 783, 3-benzo[1,3]dioxol-5-yl-[1,2,4]oxadiazole-5-carboxylic acid {[4-(1-dimethylamino-3-phenyl-propyl)-cyclohexylcarbamoyl]-methyl}-amide] the same measures were 45% and -28%.

A word on the inhibition: it is the relative decrease from the control value, in per cent.

Source of the values: US8106055B2, “Substituted amide compounds” (Gruenenthal GmbH, priority 2007, dated 2012).
